{"source": "PubChem BioAssay (NCI)", "assay_in_all_cases": "NCI tumour cell line growth inhibition, 384-well format", "key": {"[1]": {"system": "HL-60(TB) leukemia"}, "[2]": {"system": "SK-MEL-28 melanoma"}, "[3]": {"system": "MOLT-4 leukemia"}, "[4]": {"system": "NCI-H322M lung"}, "[5]": {"system": "OVCAR-5 ovarian"}, "[6]": {"system": "CCRF-CEM leukemia"}, "[7]": {"system": "T-47D breast"}, "[8]": {"system": "SNB-19 CNS"}, "[9]": {"system": "U251 glioblastoma"}, "[10]": {"system": "SR leukemia"}, "[11]": {"system": "MCF7 breast"}, "[12]": {"system": "SN12C renal"}, "[13]": {"system": "OVCAR-8 ovarian"}}, "note": "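GI50 is the concentration that inhibits growth by half. TGI denotes the concentration required for complete inhibition of growth.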"}
{"smiles": "CC(C)[C@](O)(c1ccc2cc(OC(F)F)c(OC(F)F)cc2c1)c1cn[nH]n1", "values": [{"measurement": "GI50", "setting": "[1]", "result": 6.11, "unit": "µM"}, {"measurement": "TGI", "setting": "[1]", "result": 16.1, "unit": "µM"}, {"measurement": "GI50", "setting": "[2]", "result": 17.2, "unit": "µM"}, {"measurement": "TGI", "setting": "[2]", "result": 31.5, "unit": "µM"}, {"measurement": "GI50", "setting": "[3]", "result": 11.3, "unit": "µM"}, {"measurement": "TGI", "setting": "[3]", "result": 23.5, "unit": "µM"}, {"measurement": "GI50", "setting": "[4]", "result": 17.3, "unit": "µM"}, {"measurement": "TGI", "setting": "[4]", "result": 33, "unit": "µM"}, {"measurement": "GI50", "setting": "[5]", "result": 17.3, "unit": "µM"}, {"measurement": "TGI", "setting": "[5]", "result": 38.2, "unit": "µM"}, {"measurement": "GI50", "setting": "[6]", "result": 12.3, "unit": "µM"}, {"measurement": "TGI", "setting": "[6]", "result": 24.8, "unit": "µM"}, {"measurement": "GI50", "setting": "[7]", "result": 10.9, "unit": "µM"}, {"measurement": "TGI", "setting": "[7]", "result": 38.2, "unit": "µM"}, {"measurement": "GI50", "setting": "[8]", "result": 17.8, "unit": "µM"}, {"measurement": "TGI", "setting": "[8]", "result": 32.2, "unit": "µM"}, {"measurement": "GI50", "setting": "[9]", "result": 16.7, "unit": "µM"}, {"measurement": "TGI", "setting": "[9]", "result": 30.5, "unit": "µM"}, {"measurement": "GI50", "setting": "[10]", "result": 3.91, "unit": "µM"}, {"measurement": "TGI", "setting": "[10]", "result": 13.6, "unit": "µM"}, {"measurement": "GI50", "setting": "[11]", "result": 13, "unit": "µM"}, {"measurement": "TGI", "setting": "[11]", "result": 27.5, "unit": "µM"}, {"measurement": "GI50", "setting": "[12]", "result": 14.9, "unit": "µM"}, {"measurement": "TGI", "setting": "[12]", "result": 28.2, "unit": "µM"}, {"measurement": "GI50", "setting": "[13]", "result": 16.3, "unit": "µM"}, {"measurement": "TGI", "setting": "[13]", "result": 30, "unit": "µM"}]}
